# In patent US20180153993A1, “COMPOSITIONS AND METHODS FOR TREATMENT AND PREVENTION OF CARDIOVASCULAR DISEASES” (The Chinese University of Hong Kong, priority 2016, published 2018):
# Assays:
# ApoE−/− mice = test: Oral administration of MnCl2 in ApoE-/- mice on Western diet, Oil Red O staining of atherosclerotic plaques; type: in vivo, mouse; details: Western diet 12 weeks, MnCl2 oral in drinking water 5 mg/kg body weight
# Description: ApoE^−/− mice (male, 12 weeks old) were fed a Western diet, and MnCl2 was administered through voluntary water consumption. Water consumption rate was predetermined by monitoring the volume of water remained. MnCl2 was supplemented to drinking water to achieve 5 mg/kg body weight. Mice body weight and water consumption were adjusted weekly to adapt to the change of body weight and water consumption. After feeding on the Western diet for 3 months, the mice were killed and the atherosclerotic plaque formation was determined by Oil Red O staining.
# The ApoE^−/− mice were killed by CO2 asphyxiation. Mouse aortas were dissected in cold PBS and cut open to expose the atherosclerotic plaques. After fixation in 4% formaldehyde for 16 h at 4° C., the tissues were first rinsed in water for 10 min and then in 60% isopropanol. The aortas were stained with Oil Red O for 15 min with gentle shaking, and rinsed again in 60% isopropanol and then in water for three rinses. The samples were fixed on the cover slides with the endothelial surface facing upwards. The images were recorded using an HP Scanjet G4050. The plaque areas were determined using National Institutes of Health ImageJ software and calculated by expressing the plaque area relative to the total vascular area.
# YAP/TAZ [1] = test: YAP/TAZ nuclear exportation in HUVECs; type: cell-based, human
# YAP = YAP phosphorylation (Ser127, pYAP) by immunoblotting in HUVECs; type: cell-based, human
# Description: Cells or tissues were homogenized in cold RIPA lysis buffer supplemented with complete protease inhibitors cocktail and phosSTOP phosphatase inhibitor (Roche). The protein concentration was determined using Bradford Assay (Bio-Rad). Ten micrograms of protein were resolved by SDS-polyacrylamide gel electrophoresis and transferred to the PVDF membrane (Bio-Rad). Target protein was detected using specific primary antibody. Bound antibodies were detected by horseradish-peroxidase-conjugated secondary antibody and visualized by enhanced chemiluminescence (Cell Signaling Technology). Experiments were repeated three times and the target protein level was quantified by imageJ and normalized to internal control (or pYAP was normalized by total YAP) (FIGS. 10 and 11).
# (§1) HUVECs and human aortic ECs were purchased from Lonza (EGM, Clonetics, Lonza, Walkersville, Md., USA). Lonza guarantees that the cells express CD31/105, von Williebrand Factor VIII, and are positive for acetyated low density lipoprotein uptake. Mycoplasma contamination was not tested during the experiments. HUVECs maintained in EGM supplemented with EGS and FBS at 37° C. in an incubator with 95% humidified air and 5% CO2 and passed every 3 days. Cells within seven passages were used in in vitro study.
# RhoA = test: GST-RBD pull-down for active RhoA (GTP-RhoA) detection; type: cell-based, human; details: MnCl2 treatment
# Description: GST-RBD recombinant protein was purified from BL21 (DE3) Escherichia coli and affinity conjugated to glutathione sepharose beads (Pharmacia). For GST affinity pull-down, 10^7 cells were lysed in 1 ml Weak Lysis Buffer (Beyotime) supplemented with protease inhibitors (Roche). Cell lysates were centrifuged at 15,000 g at 4° C. for 20 min to remove cell debris. Cell lysates were incubated in sepharose beads conjugated with 1 μg GST-RBD and incubate at 4° C. for 2 h with constant agitation, and precipitated by centrifugation at 1,000 r.p.m. for 10 min. After three washes, beads were collected by centrifugation and boiled in 2× SDS loading buffer for 5 min. The active RhoA was determined by western blotting.
# YAP/TAZ [2] = test: YAP/TAZ reporter (8xGTIIC-luc) gene activity in HUVECs; type: cell-based, human
# YAP/TAZ [3] = test: YAP/TAZ reporter gene activity assay of anti-atherosclerotic agents (YAP/TAZ inhibition test); type: cell-based, human; details: working concentrations of Table 1: apelin 100 nM, ApoA1 10 μg/mL, niacin 3 to 5 mM, statins 1-10 μM
# Source text: Adenovirus-mediated reporter system and immortalized human aortic endothelial cells (HAECs) are used for drug screening. […] Endothelial cells express specific receptors that determine their unique response to different drug treatment. Therefore, it is necessary to use endothelial cells to study the YAP/TAZ inhibitory effect of lead drugs. Since primary endothelial cells from different donors contain distinct genetic background, which might cause significant variation between different batches of experiments, the immortalized human aortic endothelial cells are used. However, endothelial cells are difficult to be transformed, which could delay research progress and increase cost. To overcome this problem, the inventors have generated adenoviral expressing YAP/TAZ luciferase reporter and renilla internal control. The entire screening process can be completed in two days.
# YAP/TAZ [4] = test: YAP/TAZ target gene expression (CTGF, CYR61), quantitative real-time PCR in HUVECs; type: cell-based, human; details: CTGF and CYR61
# Description: RNA was extracted by using TRIzol Reagent (Thermo) according to the manufacturer's protocol. cDNA was synthesized using a High-Capacity cDNA Reverse Transcription Kit (Thermo). Quantitative PCR was performed using SYBR Select (Thermo) following the manufacturer's protocol. GAPDH was used as the internal control. Primers used for quantitative real-time PCR were included in Table 2.
# as §1
molecule,measurement,setting,value
[Cl][Mn][Cl] [MnCl2],atherosclerotic plaque formation,ApoE−/− mice,reduced plaque formation
same,YAP/TAZ nuclear exportation,YAP/TAZ [1],induced YAP/TAZ nuclear exportation
same,YAP phosphorylation (pYAP),YAP; MnCl2 0.5 mM,increased pYAP
same,GTP-RhoA (active RhoA),RhoA,GTP-RhoA suppression
same,YAP/TAZ reporter gene activity,YAP/TAZ [2],reduced YAP/TAZ reporter gene activity
"O=C(O)c1cccnc1 [niacin, Nicotinic acid]",YAP/TAZ activity (reporter gene),YAP/TAZ [3],suppressed YAP/TAZ activity
Apelin,YAP/TAZ activity (reporter gene),YAP/TAZ [3],suppressed YAP/TAZ activity
ApoA1,YAP/TAZ activity (reporter gene),YAP/TAZ [3],suppressed YAP/TAZ activity
GRGDSP,YAP/TAZ target gene expression,YAP/TAZ [4],suppressed YAP/TAZ target gene expression
same,YAP phosphorylation (pYAP),YAP; GRGDSP 100 μg ml−1,increased pYAP
